Measurements as given in patent US4722931A, “Calcium antagonist” (Laboratorios Delagrange, priority 1984, dated 1988).
Counter-ions that a name gives are not always drawn. Like-named read-outs stand apart in the source and are kept apart here.

Columns and labels:
[1] = tested on: KCl depolarized rat aorta; test: Inhibitory effects on rat aorta contractions induced by KCl (in vitro); format: cell-based, Wistar rats; settings: for activity relative to compound 7 (IC 50): same test, compared with compound 7
From the text: Inhibitory effects on rat aorta contractions induced by KCl: […]

SHR rats = test: Antihypertensive efficacy in SHR rats (systolic blood pressure, tail cuff); format: in vivo, spontaneously hypertensive rats (SHR); settings: for maximum decrease of blood pressure, mm Hg / inhibition in vivo at 8 mg/kg: n = 5; for inhibition in vivo at 8 mg/kg: Rattus norvegicus, po, Table 2, read-out: maximum decrease of blood pressure, %; for in vivo antihypertensive activity, in words: p.os
Protocol: The systolic blood pressure was measured on the tail of conscious, spontaneously hypertensive rats (SHR), by means of an inflatable rubber cuff and a Digital Pressure meter LE 5000 (Letica Instruments, Barcelone, Spain). Measurements were carried out before administration of the substance, as well as 30 minutes, 1 h, 2, 6, and 24 hours afterwards, respectively. The animals were kept in pre-warmed plastic cylinders during the measurements. The rats with a blood pressure lesser than 160 mm. Hg were discarded. Each compound was tested in 5 animals. Compounds of this invention, or nitrendipine which was used as positive control were given orally in the form of suspensions in 5% acacia gum.

[2] = KCl 80 mM depolarized rat aorta, Table 1, read-out: IC × 10^-8
[3] = rat aorta contractions induced by KCl 80 mM, read-out: IC 50
[4] = rat aorta contractions induced by KCl 80 mM

IC50 [1, 2] [nM] | Compound | maximum decrease of blood pressure, mm Hg (SHR rats; 8 mg./kg. p.os) [mm Hg] | inhibition in vivo at 8 mg/kg (SHR rats; 8 mg./kg. p.os) [%] | further results
91 | COCCOC(=O)C1=C(C)NC(C)=C(C(=O)OC(C)C)C1c1cccc2c1OCO2 (stereo not drawn) [Compound 11, 1,4-dihydro-2,6-dimethyl-4-(2',3'-methylenedioxyphenyl)-3,5-pyridinedicarboxylic acid, isopropyl methoxyethyl ester] |  |  | 
> 100 | CCOC(=O)C1=C(C)NC(C)=C(C(=O)OCC)C1c1cccc2c1OCO2 [Compound 14, 1,4-dihydro-2,6-dimethyl-4-(2',3'-methylenedioxyphenyl)-3,5-pyridinedicarboxylic acid, diethyl ester] |  |  | 
> 100 | CCOC(=O)C1=C(C)NC(C)=C(C(=O)OC)C1c1cccc(OC)c1OC (stereo not drawn) [Compound 4, 1,4-dihydro-2,6-dimethyl-4-(2',3'-dimethoxyphenyl)-3,5-pyridinedicarboxylic acid, ethyl methyl ester] |  |  | 
> 100 | COCCOC(=O)C1=C(C)NC(C)=C(C(=O)OCCOC)C1c1cccc2c1OCO2 [Compound 16, 1,4-dihydro-2,6-dimethyl-4-(2',3'-methylenedioxyphenyl)-3,5-pyridinedicarboxylic acid, dimethoxyethyl ester] |  |  | 
92 | CCOC(=O)C1=C(C)NC(C)=C(C(=O)OC)C1c1cc(OC)cc(OC)c1 (stereo not drawn) [Compound 5, 1,4-dihydro-2,6-dimethyl-4-(3',5'-dimethoxyphenyl)-3,5-pyridinedicarboxylic acid, ethyl methyl ester] |  |  | 
45 | CCOC(=O)C1=C(C)NC(C)=C(C(=O)OC)C1c1cccc2c1OCCO2 (stereo not drawn) [Compound 8, 1,4-dihydro-2,6-dimethyl-4-(2',3'-ethylenedioxyphenyl)-3,5-pyridinedicarboxylic acid, methyl ethyl ester] | 12 | 7.2 | in vitro activity, in words [1, 4]: rather active in vitro; in vitro activity, in words ([1]; rat aorta contractions induced by KCl 80 mM, listed as IQB-838 V): very active; in vivo antihypertensive activity, in words (SHR rats; SHR rats): a little antihypertensive effect; in vivo antihypertensive activity, in words (SHR rats; SHR rats, listed as IQB-838 V): very active
12 | COC(=O)C1=C(C)NC(C)=C(C(=O)OCC(C)C)C1c1cccc2c1OCO2 (stereo not drawn) [Compound 10, 1,4-dihydro-2,6-dimethyl-4-(2',3'-methylenedioxyphenyl)-3,5-pyridinedicarboxylic acid, methyl isobutyl ester] | 48 | 23.5 | in vivo antihypertensive activity, in words (SHR rats; SHR rats): also active in vivo
> 100 | COC(=O)C1=C(C)NC(C)=C(C(=O)OCc2ccccn2)C1c1cccc2c1OCO2 (stereo not drawn) [Compound 17, 1,4-dihydro-2,6-dimethyl-4-(2',3'-methylenedioxyphenyl)-3,5-pyridinedicarboxylic acid, methyl, 2-pyridylmethyl ester, hydrochloride] |  |  | 
> 100 | CCOC(=O)C1=C(C)NC(C)=C(C(=O)OC)C1c1cc(OC)c(O)c(OC)c1 (stereo not drawn) [Compound 3, 1,4-dihydro-2,6-dimethyl-4-(3',5'-dimethoxy-4'-hydroxyphenyl)-3,5-pyridinedicarboxylic acid, methyl ethyl ester] |  |  | in vitro activity, in words [1, 4]: little or no activity
 | CCOC(=O)C1=C(C)NC(C)=C(C(=O)OC)C1c1cccc([N+](=O)[O-])c1 (stereo not drawn) [nitrendipine, reference compound] | 54 | 26.3 | 
> 100 | CCOC(=O)C1=C(C)NC(C)=C(C(=O)OC)C1c1cc(OC)c(OC)c(OC)c1 (stereo not drawn) [Compound 1, 1,4-dihydro-2,6-dimethyl-4-(3',4',5'-trimethoxyphenyl)-3,5-pyridinedicarboxylic acid, methyl ethyl ester] | 9.8 | 5 | in vitro activity, in words [1, 4]: little or no activity
2.1 | CCOC(=O)C1=C(C)NC(C)=C(C(=O)OC(C)C)C1c1cccc2c1OCO2 (stereo not drawn) [Compound 15, 1,4-dihydro-2,6-dimethyl-4-(2',3'-methylenedioxyphenyl)-3,5-pyridinedicarboxylic acid, ethyl isopropyl ester] | 62 | 32.4 | IC50 [1, 3]: 2.1 nM; activity relative to compound 7 (IC 50) [1]: as active as compound 7; in vivo antihypertensive activity, in words (SHR rats; SHR rats): also active in vivo
34 | COC(=O)C1=C(C)NC(C)=C(C(=O)OC(C)C)C1c1cccc2c1OCO2 (stereo not drawn) [Compound 13, 1,4-dihydro-2,6-dimethyl-4-(2',3'-methylenedioxyphenyl)-3,5-pyridinedicarboxylic acid, methyl isopropyl ester] | 10 | 5.2 | 
12 | CCOC(=O)C1=C(C)NC(C)=C(C(=O)OC)C1c1ccccc1OCOC (stereo not drawn) [Compound 6, 1,4-dihydro-2,6-dimethyl-4-(2'-methoxymethoxy-phenyl)-3,5-pyridinedicarboxylic acid, ethyl methyl ester] | 34 | 15.2 | in vivo antihypertensive activity, in words (SHR rats; SHR rats): also active in vivo
> 100 | CCOC(=O)C1=C(C)NC(C)=C(C(=O)OC)C1c1ccc(OC)c(OC)c1 (stereo not drawn) [Compound 2, 1,4-dihydro-2,6-dimethyl-4-(3',4'-dimethoxyphenyl)-3,5-pyridinedicarboxylic acid, methyl ethyl ester] |  |  | in vitro activity, in words [1, 4]: little or no activity
> 100 | CC1=C(C(=O)OC(C)C)C(c2cccc3c2OCO3)C(C(=O)OC(C)C)=C(C)N1 [Compound 12, 1,4-dihydro-2,6-dimethyl-4-(2',3'-methylenedioxyphenyl)-3,5-pyridinedicarboxylic acid, diisopropyl ester] |  |  | 
3.1 | CCOC(=O)C1=C(C)NC(C)=C(C(=O)OC)C1c1cccc2c1OCO2 (stereo not drawn) [Compound 7, 1,4-dihydro-2,6-dimethyl-4-(2',3'-methylenedioxyphenyl)-3,5-pyridinedicarboxylic acid, ethyl methyl ester] | 65 | 33 | in vitro activity, in words [1, 4]: the most active within the series of methyl ethyl ester derivatives; in vitro activity, in words ([1]; rat aorta contractions induced by KCl 80 mM, listed as IQB-837 V): very active; IC50 [1, 3]: 3.5 nM; decreasing blood pressure by (SHR rats; 8 mg./kg. p.os, SHR rats): 30%; in vivo antihypertensive activity, in words (SHR rats; SHR rats): as active as nitrendipine; in vivo antihypertensive activity, in words (SHR rats; SHR rats, listed as IQB-837 V): very active
83 | COC(=O)C1=C(C)NC(C)=C(C(=O)OC)C1c1cccc2c1OCO2 [Compound 9, 1,4-dihydro-2,6-dimethyl-4-(2',3'-methylenedioxyphenyl)-3,5-pyridinedicarboxylic acid, dimethyl ester] |  |  | 

Compound | IC50 [1, 2] [nM] | maximum decrease of blood pressure, mm Hg (SHR rats; 8 mg./kg. p.os) [mm Hg] | inhibition in vivo at 8 mg/kg (SHR rats; 8 mg./kg. p.os) [%] | further results
COC(=O)C1=C(C)NC(C)=C(C(=O)OC)C1c1ccccc1[N+](=O)[O-] [Nifedipine, nifedipine, reference compound] | 7.1 |  |  | IC50 [1, 3]: 7.5 nM; activity relative to compound 7 (IC 50) [1]: about two times less active than compound 7
